Among the data in patent publication US11760761B2, “Methods and compositions for targeting PD-L1” (Aligos Therapeutics, Inc., priority 2020, dated 2023) are IC50, Emax and EC50 values, retold here.

In general, Emax refers to the maximal effect, on the per cent scale that the assay sets. The term EC50 denotes the concentration that produces a half-maximal response.

Some results are limits rather than exact numbers.

The target in one experiment is PDL1/PD1 (Homo sapiens (Human), UniProt Q9NZQ7). The experiment is described as follows: PDL1/PD1 Binding Assay. To be noted: PDL1-6xHis 0.3 nM, PD1-Fc-Avi-Biotin 2.5 nM, Acceptor/Donor beads; read-out: PD-1/PD-L1 PPI IC50. Here is the method:
Compounds to be tested were serially diluted in DMSO, and further diluted in assay buffer (25 mM Hepes pH 7.4, 150 mM NaCl, 0.005% Tween 20, BSA 0.01%). Diluted compounds were added to the wells with final concentration of DMSO at 1%. PDL1-6×His protein was added to the wells, mixed well with compound. The plates were incubated for 30 min at room temperature. PD1-Fc-Avi-Biotin protein was added to the wells. Final concentration of PDL1 and PD1 protein is 0.3 nM and 2.5 nM, respectively. After a binding time of 30 min at room temperature, Anti-6×His Acceptor beads (final concentration 20 ug/ml) were added to the wells, and the incubation continued for 1 h. Streptavidin Donor beads (final concentration 20 ug/mL) were added at reduced light. The plates were sealed with foil and incubated in the dark for additional 1 h or overnight before reading on an Envision reader. The IC50 values were determined by fitting the curves using a four-parameter equation in Graphpad Prism 8.

The target in the next experiment is PD-1/PD-L1 interaction (Homo sapiens (Human), UniProt Q9NZQ7). The experiment can be described thus: PD-1/PD-L1 NFAT Reporter Assay (Jurkat T cells / PD-L1 expressing CHO cells co-culture). To be noted: for Emax: Jurkat, maximum NFAT-activation level relative to the positive control (10 nM Atezolizumab); for EC50: co-culture 6 hrs at 37° C., luciferase. The experiment is classed as cell-based. As to the method: Blocking the PD-1/PD-L1 interaction will release the inhibitory signal and results in TCR signaling and NFAT-mediated luciferase activity.
CHO cells expressing surface-bound anti-CD3 antibodies and PD-L1 were first seeded overnight and treated with the compounds. Jurkat cells overexpressing PD-1 and a luciferase construct under NF-AT promoter were then immediately seeded on the monolayer of CHO cells. The co-culture was then incubated for 6 hrs at 37° C. Luciferase activity was assessed by adding the ONE-Glo reagent and measuring luminescence with a plate reader. EC50s values were determined from the fit of the dose-response curves Emax (%) corresponds to the maximum NFAT-activation level reached by a given compound relative to the positive control (10 nM Atezolizumab).

Sequence of PDL1/PD1 (Q9NZQ7 19-238): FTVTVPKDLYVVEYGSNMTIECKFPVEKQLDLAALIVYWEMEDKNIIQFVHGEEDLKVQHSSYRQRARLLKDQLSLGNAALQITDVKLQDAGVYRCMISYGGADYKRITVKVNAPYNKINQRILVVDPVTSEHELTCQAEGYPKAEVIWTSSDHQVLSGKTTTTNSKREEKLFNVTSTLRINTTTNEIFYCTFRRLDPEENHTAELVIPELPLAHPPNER
Sequence of PD-1/PD-L1 interaction (Q9NZQ7 19-290): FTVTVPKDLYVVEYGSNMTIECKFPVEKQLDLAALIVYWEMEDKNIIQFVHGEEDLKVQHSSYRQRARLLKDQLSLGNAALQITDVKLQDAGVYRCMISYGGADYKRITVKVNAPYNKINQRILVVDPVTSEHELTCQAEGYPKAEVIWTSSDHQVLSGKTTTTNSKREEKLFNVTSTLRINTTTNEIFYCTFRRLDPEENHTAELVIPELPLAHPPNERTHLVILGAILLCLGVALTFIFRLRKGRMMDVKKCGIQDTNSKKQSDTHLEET

As to `COc1cc(-c2cccc(-c3cccc(-c4cnc(CN5CC6(CCC(=O)N6)C5)c(OC)n4)c3Cl)c2Cl)cc2c1[C@@H](N1CC(O)C1)CC2` (single isomer, unassigned) [Compound A-5], the IC50 at PDL1/PD1 is not above 10 nM. On PD-1/PD-L1 interaction, this molecule had an Emax of 102% and an EC50 of 100 to 1000 nM.

Take `COc1nc(-c2cccc(-c3cccc(-c4cc5c(c(OC)n4)[C@@H](N4CC6(CCC(=O)N6)C4)CC5)c3Cl)c2Cl)cnc1CN1CC2(C1)CN(C(C)=O)C2` (single isomer, unassigned) [Compound D-14]: the IC50 on PDL1/PD1 is not above 10 nM. Further, the EC50 at PD-1/PD-L1 interaction is not above 10 nM.

On to `COc1nc(-c2cccc(-c3cccc(-c4cc5c(c(OC)n4)[C@@H](NC[C@@H]4CCC(=O)N4)CC5)c3Cl)c2Cl)cnc1CN1CCN(C(C)=O)CC1` [Compound D-6], for which the IC50 at PDL1/PD1 is not above 10 nM. The EC50 at PD-1/PD-L1 interaction was not above 10 nM.

For the molecule `COc1nc(-c2cccc(-c3cccc(-c4cc5c(c(OC)n4)[C@H](N4CC(C(=O)O)C4)CC5)c3Cl)c2Cl)cnc1CN1C[C@@H](O)[C@@H]1C` (single isomer, unassigned) [Compound H-6], the IC50 on PDL1/PD1 was not above 10 nM. The molecule further had an EC50 on PD-1/PD-L1 interaction of 100 to 1000 nM.

In the case of `COc1nc(-c2cccc(-c3cccc(-c4cc5c(c(OC)n4)[C@@H](NC[C@@H]4CCC(=O)N4)CC5)c3Cl)c2Cl)cnc1CNC[C@@H]1CCC(=O)N1` [Compound D-2], the IC50 on PDL1/PD1 was not above 10 nM. The molecule further registered an EC50 on PD-1/PD-L1 interaction not above 10 nM.

In the case of `COc1nc(-c2cccc(-c3cccc(-c4cc5c(c(OC)n4)C(NC[C@H]4CCC(=O)N4)CC5)c3Cl)c2Cl)cnc1CN1CC2(CCC(=O)N2)C1` (stereo partly shown) [Compound C-7], the IC50 on PDL1/PD1 was not above 10 nM. Also, the EC50 on PD-1/PD-L1 interaction was 10 to 100 nM.

Regarding `COc1nc(-c2cccc(-c3cccc(-c4cc5c(c(OCC6CC6)n4)C(NC[C@@H]4CCC(=O)N4)CC5)c3Cl)c2Cl)cnc1CN1CC2(CCC(=O)N2)C1` (stereo partly shown) [Compound C-14], the IC50 on PDL1/PD1 was not above 10 nM. The EC50 at PD-1/PD-L1 interaction lay in the range of 10 to 100 nM.

For `COc1nc(-c2cccc(-c3cccc(-c4cc5c(c(OC)n4)[C@@H](N4CC(O)C4)CC5)c3Cl)c2Cl)cnc1CN1CC2(CCC(=O)N2)C1` (single isomer, unassigned) [Compound C-5], the IC50 on PDL1/PD1 is not above 10 nM. For the same molecule, the EC50 at PD-1/PD-L1 interaction was not above 10 nM.

Regarding `COc1nc(-c2cccc(-c3cccc(-c4cc5c(c(OC)n4)[C@@H](NC[C@@H]4CCC(=O)N4)CC5)c3Cl)c2Cl)cnc1CN1CC(F)C1` [Compound D-4], the IC50 at PDL1/PD1 is not above 10 nM. On PD-1/PD-L1 interaction, this molecule showed an EC50 of 10 to 100 nM.

`COc1cc(-c2cccc(-c3cccc(-c4cnc(CN5CC6(CCC(=O)N6)C5)c(OC)n4)c3Cl)c2Cl)cc2c1C[C@H](N1CC3(CCC(=O)N3)C1)C2` (single isomer, unassigned) [Compound A-13]: the IC50 on PDL1/PD1 is not above 10 nM. At PD-1/PD-L1 interaction, the Emax is 58% and the EC50 was in the range of 1000 to 10000 nM.

Consider `COc1nc(-c2cccc(-c3cccc(-c4cc5c(c(OC)n4)[C@@H](NC[C@@H]4CCC(=O)N4)CC5)c3Cl)c2Cl)cnc1CN1CC2(CCCO2)C1` [Compound D-3], for which the IC50 on PDL1/PD1 is not above 10 nM. Further, the EC50 on PD-1/PD-L1 interaction is not above 10 nM.

With `COc1nc(-c2cccc(-c3cccc(-c4cc5c(c(OC)n4)[C@H](NC[C@@H]4CCC(=O)N4)CC5)c3Cl)c2Cl)cnc1CN1CC(OC)C1` [Compound D-10], the IC50 at PDL1/PD1 was not above 10 nM. The molecule further registered an EC50 at PD-1/PD-L1 interaction of 1000 to 10000 nM.

As for `COc1nc(-c2cccc(-c3cccc(-c4cc5c(c(OC)n4)C(N4CCC(C(=O)O)CC4)CC5)c3Cl)c2Cl)cnc1CN1CC(O)C1` (stereo not shown) [Compound F-3], the IC50 on PDL1/PD1 is not above 10 nM. Besides, at PD-1/PD-L1 interaction, the EC50 fell in the range of 10 to 100 nM.

For the molecule `COc1nc(-c2cccc(-c3cccc(-c4cc5c(c(OC)n4)[C@H](N4CC(O)C4)CC5)c3Cl)c2Cl)cnc1CN1CC2(CCC(=O)N2)C1` (single isomer, unassigned) [Compound C-6], the IC50 at PDL1/PD1 is not above 10 nM. For the same molecule, on PD-1/PD-L1 interaction, the EC50 is 100 to 1000 nM.

For the molecule `COc1nc(-c2cccc(-c3cccc(-c4cc5c(c(OC)n4)[C@@H](NC[C@@H]4CCC(=O)N4)CC5)c3Cl)c2Cl)cnc1CN1CC(F)(F)C1` [Compound D-5], the IC50 at PDL1/PD1 is not above 10 nM. Besides, on PD-1/PD-L1 interaction, the EC50 fell in the range of 10 to 100 nM.

In the case of `COc1cc(-c2cccc(-c3cccc(-c4cnc(CN5CC6(CCC(=O)N6)C5)c(OC)n4)c3Cl)c2Cl)cc2c1[C@H](N1CC(C(=O)O)C1)CC2` (single isomer, unassigned) [Compound B-4], the IC50 at PDL1/PD1 is not above 10 nM. Moreover, at PD-1/PD-L1 interaction, the Emax was found to be 65% and the EC50 is 1000 to 10000 nM.

Turning to `CCOC(=O)CN[C@H]1CCc2cc(-c3cccc(-c4cccc(-c5cnc(CN6CC7(CCC(=O)N7)C6)c(OC)n5)c4Cl)c3Cl)cc(OC)c21` [Compound A-1], the IC50 on PDL1/PD1 was not above 10 nM. At PD-1/PD-L1 interaction, the Emax was 33%.

On to `COc1nc(-c2cccc(-c3cccc(-c4cc5c(c(OC)n4)C(N4CCN(C(C)=O)CC4)CC5)c3Cl)c2Cl)cnc1CN1CC2(CCC(=O)N2)C1` (stereo not shown) [Compound C-10], for which the IC50 on PDL1/PD1 is not above 10 nM. The molecule further came in with an EC50 at PD-1/PD-L1 interaction of 10 to 100 nM.

With `COc1nc(-c2cccc(-c3cccc(-c4cc5c(c(OC)n4)[C@H](N4CC(C(=O)O)C4)CC5)c3Cl)c2Cl)cnc1CN1CC(OC)C1` (single isomer, unassigned) [Compound H-4], the IC50 on PDL1/PD1 is not above 10 nM. In addition, on PD-1/PD-L1 interaction, the EC50 fell in the range of 100 to 1000 nM.

For the molecule `COc1nc(-c2cccc(-c3cccc(-c4cc5c(c(OC)n4)[C@@H](NC[C@@H]4CCC(=O)N4)CC5)c3Cl)c2Cl)cnc1CN1CC(O)C1` [Compound D-8], the IC50 at PDL1/PD1 was not above 10 nM. At PD-1/PD-L1 interaction, this molecule returned a 50% effective concentration (EC50) not above 10 nM.

Take `COc1nc(-c2cccc(-c3cccc(-c4cc5c(c(OC)n4)[C@@H](NC[C@@H]4CCC(=O)N4)CC5)c3Cl)c2Cl)cnc1CN1C[C@@H](O)[C@@H]1C` [Compound D-13]: the IC50 on PDL1/PD1 was not above 10 nM. Besides, the EC50 at PD-1/PD-L1 interaction was not above 10 nM.

`CCOC(=O)CN[C@@H]1CCc2cc(-c3cccc(-c4cccc(-c5cnc(CN6CC7(CCC(=O)N7)C6)c(OC)n5)c4Cl)c3Cl)cc(OC)c21` (single isomer, unassigned) [Compound A-2]: the IC50 on PDL1/PD1 is not above 10 nM. On PD-1/PD-L1 interaction, this molecule had an Emax of 85% and an EC50 of 100 to 1000 nM.

Take `COc1cc(-c2cccc(-c3cccc(-c4cnc(CN5CC6(CCC(=O)N6)C5)c(OC)n4)c3Cl)c2Cl)cc2c1C[C@@H](N1CC3(CCC(=O)N3)C1)C2` (single isomer, unassigned) [Compound A-12]: the IC50 on PDL1/PD1 was not above 10 nM. Also, at PD-1/PD-L1 interaction, the Emax worked out at 191% and the EC50 is 10 to 100 nM.

For `CCOC(=O)C1CN([C@@H]2CCc3cc(-c4cccc(-c5cccc(-c6cnc(CN7CC(OC)C7)c(OC)n6)c5Cl)c4Cl)nc(OC)c32)C1` (single isomer, unassigned) [Compound G-6], at PDL1/PD1, the IC50 is not above 10 nM. The molecule further displayed an EC50 at PD-1/PD-L1 interaction of 1000 to 10000 nM.

`COc1nc(-c2cccc(-c3cccc(-c4cc5c(c(OC)n4)[C@H](N4CC6(CN(C(C)=O)C6)C4)CC5)c3Cl)c2Cl)cnc1CN1CC2(C1)CN(C(C)=O)C2` (single isomer, unassigned) [Compound D-19]: the IC50 on PDL1/PD1 is not above 10 nM. Also, the EC50 on PD-1/PD-L1 interaction was not above 10 nM.

With `COc1nc(-c2cccc(-c3cccc(-c4cc5c(c(OC)n4)[C@@H](N4CC6(CCC(=O)N6)C4)CC5)c3Cl)c2Cl)cnc1CN1CC2(CCC(=O)N2)C1` (single isomer, unassigned) [Compound C-3], the IC50 on PDL1/PD1 is not above 10 nM. This molecule also showed an EC50 on PD-1/PD-L1 interaction not above 10 nM.

As for `COc1nc(-c2cccc(-c3cccc(-c4cc5c(c(OC)n4)[C@H](NC[C@@H]4CCC(=O)N4)CC5)c3Cl)c2Cl)cnc1CN1CC(O)C1` [Compound D-7], the IC50 on PDL1/PD1 was not above 10 nM. Further, the EC50 on PD-1/PD-L1 interaction was 100 to 1000 nM.

Take `CCOc1nc(-c2cccc(-c3cccc(-c4cnc(CN5CC6(CCC(=O)N6)C5)c(OC)n4)c3Cl)c2Cl)cc2c1C(NC[C@@H]1CCC(=O)N1)CC2` (stereo partly shown) [Compound C-12]: on PDL1/PD1, the IC50 was not above 10 nM. In addition, the EC50 on PD-1/PD-L1 interaction lay within 10 to 100 nM.

As for `COc1nc(-c2cccc(-c3cccc(-c4cc5c(c(OC)n4)[C@@H](NC[C@@H]4CCC(=O)N4)CO5)c3Cl)c2Cl)cc(C)c1CN1CC2(C1)CN(C(C)=O)C2` (single isomer, unassigned) [Compound E-4], at PDL1/PD1, the IC50 was not above 10 nM. For the same molecule, at PD-1/PD-L1 interaction, the EC50 is not above 10 nM.

In the case of `COc1cc(-c2cccc(-c3cccc(-c4cnc(CN5CC6(CCC(=O)N6)C5)c(OC)n4)c3Cl)c2Cl)cc2c1C[C@H](N1CC(O)C1)C2` (single isomer, unassigned) [Compound A-11], the IC50 on PDL1/PD1 was not above 10 nM. At PD-1/PD-L1 interaction, this molecule yielded an Emax of 84% and an EC50 of 1000 to 10000 nM.

On to `CCOC(=O)C1CN([C@H]2CCc3cc(-c4cccc(-c5cccc(-c6cnc(CN7CC(OC)C7)c(OC)n6)c5Cl)c4Cl)nc(OC)c32)C1` (single isomer, unassigned) [Compound G-5], for which the IC50 on PDL1/PD1 is not above 10 nM. This molecule returned an EC50 at PD-1/PD-L1 interaction of 10 to 100 nM.

For `COc1nc(-c2cccc(-c3cccc(-c4cc5c(c(OC)n4)[C@@H](N4CC6(CCC(=O)N6)C4)CC5)c3Cl)c2Cl)cnc1CNC[C@@H]1CCC(=O)N1` (single isomer, unassigned) [Compound D-15], at PDL1/PD1, the IC50 was not above 10 nM. This molecule had an EC50 on PD-1/PD-L1 interaction of 10 to 100 nM.
